Data as given in patent publication US6436705B1, “Shape stabilized erythrocytes” (The United States of America as represented by the …, priority 1997, dated 2002).

How the values were obtained:
Human erythrocytes [1] = assay: 'gravity-driven' filtration assay of erythrocyte deformability (5 μm pore filter); type: cell-based
Procedure: The deformability of erythrocytes after crosslinking with diamide and its reversal with dithioerythritol is measured using a “gravity-driven” filtration assay. Diluted erythrocyte suspensions are passed through a 5 μm pore filter The relative filtration index is determined using the following expression: [formula] […] Human erythrocytes subjected to crosslinking with diamide and subsequent reversal of the crosslinking dithioeiythritol were passed through a 5 μm pore filter. Relative filtration index was determined.

Human erythrocytes [2] = assay: Freeze-thaw damage (percentage hemolysis after freezing at −20° C.); type: cell-based; settings: 5 mM diamide for 1 h at room temperature; 1 h freezing at −20° C.; FIG. 2
Procedure: Erythrocytes pre-treated with diamide were frozen immediately or after 3 h of incubation in the freezing medium (glucose 200 mM, raffinose 139 mM, sodium citrate 33 mM, sodium phosphate dibasic 12 mM, sodium phosphate monobasic 2.9 mM, ammonium phosphate 40 mM, adenine 2 mM) to allow loading with glucose. Freezing was carried out at −20° C. in a freezer for […] and samples were thawed in a water bath at room temperature.
After completion of the freeze-thaw cycle samples were centrifugated. After centrifugation (Eppendorfcentrifuge for 3 min at 3000×g) the supernatants were processed for hemolysis measurements. For determination of hemolysis the Cyanmethemoglobin method was applied. Absorption was read at 540 nm using a Hewlett Packard spectrophotometer. Percentage hemolysis was determined by Equation 1, supra. Percentage hemolysis was taken as a measure for freeze-thaw damage.
Human erytirocytes were pre-treated at room temperature with 5 mM diamide for 1 h. After the incubation was completed the unreacted reagent was removed by a washing procedure and the cells were re-suspended in a freezing medium. Erythrocytes were frozen immediately or after three hours of incubation in the freezing medium to allow loading with glucose. Percentage hemolysis represents the freeze-thaw damage after 1 h freezing at −20° C. in a freezer.

erythrocytes [3] = assay: Assay of capacity for shape change (LPC-induced echinocytosis, microscopy); type: cell-based, human
Procedure: Microscopy. Cross-linked and reversed cells were prepared as described in the section on erythrocyte preparation, etc., with the addition of 0.5% bovine serum albumin to the solution prior microscopic examination. Cells were examined using an Nikon Optiphot, equipped with PlanApo 20×objective.
Assay of capacity for shape change. To induce echinocytosis ([…]), erythrocytes were incubated with 10μg/ml LPC for 2 min at room temperature. Erythrocytes were pretreated with 5 mM DTBP for 1 h and then subjected to 10 μg/ml LPC treatment. Microscopic examination of cell morphology was performed. Erythrocytes were pretreated with 5 mM DTBP for 1 h, reversed with 10 mM DTT for 20 min and then subjected to 10 μg/ml LPC treatment. Microscopic examination followed. Erythrocyte response to LPC of normal, cross-linked and reversed cells was compared.

Human erythrocytes [4] = assay: cells; type: cell-based; settings: Homo sapiens, Erythrocyte, read-out: hemolysis in distilled water after cross-linking reversal
Procedure: Packed human erythrocytes from healthy donors were obtained from the National Naval Medical Center (Bethesda, Md.) within 48 h of donation and used within 7 days. Packed erythrocytes were washed twice in phosphate buffer solution (PBS) then re-suspended in PBS (1 vol PBS:1 vol packed cells). The erythrocyte suspension (100 ml) was placed on ice and carbon monoxide (CO) was bubbled through it for 2 hours. Saturation with CO (100%) was achieved under these conditions as detected with a CO-oximeter. Erythrocytes were packed and cross-linked with DTBP at 4° C. for different incubation times (from 1 to 24 h; 9 vol cross-linking solution: 1 vol packed cells). The cross-linking solution was prepared by dissolving DTBP in PBS (pH 7.8). After incubation DTBP was removed by repeated washing of the red cells in PBS (IEC Centra centrifuge for 10 min at 1008×g). Reversal of the cross-linking was carried out at room temperature with the reducing agent dithioerythritol (DTT) at a concentration of 10 mM in PBS (9 vol reducing solution: 1 vol packed cells) for 20 min or as indicated in the figure legends. DTT was removed by repeated washing of the red cells in PBS (IEC Centra centrifuge for 10 min at 1008×g). CO-treatment was reversed at room temperature using a hollow fiber membrane oxygenator model Capiox 308. Erythrocytes were processed through the oxygenator for 1 h. Saturation with oxygen (92%) was reached as detected with a CO-oximeter.
Erythrocytes were cross-linked with DTBP at different concentrations for different incubation times. 1 ml of the erythrocyte suspension was taken out at regular incubation times centrifuged and DTBP was removed (Eppendorf centrifuge for 3 min at 3000×g). Distilled water (1 ml) was added to the remaining packed cells. After 30 min the cells were again centrifugated (Eppendorf centrifuge for 3 min at 3000×g), and the supernatants were processed for hemolysis measurements. For determination of hemolysis the cyanmethemoglobin method was applied (see Brown in “Hematology: principles and procedures” pp. 29-31 (Lea and Febiger, eds., 1984)). Absorbance was measured at 540 nm and percent hemolysis was determined by Equation (1), supra, where the control sample was lysed in distilled water.
Erythrocyte stability in distilled water was tested after crosslinking reversal as well. Red blood cells were first cross-linked with DTBP then treated with DTT at different concentrations (from 1 to 10 mM) for different incubation times (from 5 to 20 min). Hemolysis in distilled water was measured as described above.

Human erythrocytes [5] = assay: Osmotic fragility test; type: cell-based; settings: cells treated for 1 h with 5 mM DTBP, reversed with DTT
Procedure: An osmotic fragility test (a common clinical test) was performed on erythrocytes cross-linked with 5 mM DTBP for different incubation times and on erythrocytes cross-linked and reversed with DTT. Briefly, 1 ml of the erythrocyte suspension was taken out at regular incubation times, centrifuged, and DTBP or DTT was removed (Eppendorf centrifuge for 3 min at 3000×g). 1 ml of solutions containing buffered sodium sodium chloride at different concentrations (from 1% to 0.1% NaCl in phosphate buffer) were added to the packed cells. After 30 min the samples were centrifugated (Eppendorf centrifuge for 3 min at 3000×g), and the supernatants were processed for hemolysis measurements.

Red blood cells [6] = assay: Deformability measurements with an ektacytometer (Shear-scan, Osmo-scan); type: cell-based, human; settings: DTBP cross-linked cells after treatment with DTT; Osmo-scan
Procedure: Red blood cells were cross-linked with 5 mM DTBP for 1 h. Cross-linking was reversed with 10 mM DTT for 20 min. Deformability measurements were made with fresh untreated, cross-linked, and reversed cells as well as with untreated packed cells stored in CPDA-1 for 6 weeks at 4° C. The effects of cross-linking and reversal on red blood cell deformability were measured with an ektacytometer (Technicon).
The ektacytometer is a laser diffraction viscometer described in detail by Bessiss and Mohandas. Intact red blood cells and ghosts suspended in solution produce a diffuse circular laser diffraction pattern. The instrument takes advantage of the fact that when a shear force is applied to the solution crossing the beam the cells align in the direction of shear and begin deforming into uniformly oriented ellipsoids. The laser diffraction pattern then takes on an ellipsoidal shape oriented 90° from the major elliptical cell axis, with the ratio of the long axis to the short axis length determined by the degree of cell deformation. A signal proportional to mean cellular ellipticity is derived from photometric measurement of this laser diffraction pattern in the two axis directions and is designated the deformability index (DI).
Two types of deformability profiles were generated in the present experiments. […] Shear-scans were run with 40 μl of concentrated cell suspension (80% hematocrit) mixed with 3.0 ml of 3.1% (w/v) polyvinylpyrrolidone (P, av-MW 360 kD) solution containing 138 mM NaCl, 6.34 mM Na2HPO4, 2 mM NaH2PO4, and 0.04% (w/v) NaN3 with pH=7.35±0.05, osmolality=290 mOsmol/kg (by freezing point depression), and viscosity=20 cp (assumed). Osmo-scans were run by continuous addition of this suspension medium containing 100 μl of cells to a PVP solution with a graded salt concentration. Salt gradients were made by addition of high salt PVP solution with 386 mM NaCI (osmolality=750 mOsmol/kg) to a low salt PVP solution with 2.5 mM NaCl (osmolality=40 mOsmol/kg). Conductance measurements of the cell suspension in the viscometer provided an indirect measure of osmolality, which was calculated from a standard calibration curve.
Data was recorded onto a computer, and curves were fitted and plotted using custom routines in Matlab (The Math Works Inc, Natick, Mass.). Shear scans were fitted with a polynomial of degree 6 from which the maximum DI (DImax) was calculated. Osmo-scans were fitted with a running average, and DImax was calculated within the range of 180-240 mOsmol/Kg, along with the osmolality corresponding to 1/2DImax at hypertonic salt concentrations (0′), where DI decreases with increasing intracellular viscosity secondary to cell shrinkage and increased hemoglobin concentration (see Mohandas et al., J. Clin. Invest. 66563-73(1980)). The osmolality corresponding to the minimum DI (Omin) at hypotonic salt concentrations, where DI falls due to cell swelling, was also calculated. The height of the small DI peak thought to be associated with the sudden availability of excess membrane for deformation as intracellular ions and water are lost in the lower range of hypotonic salt (63-125 mOsmol/Kg) concentrations was also recorded (see Clark et al., Blood 61 899-910 (1983)).

Red blood cells [7] = assay: Metabolic viability: ATP content of red blood cells over time; type: cell-based, human; settings: cross-linked cells treated with 10 mM DTT prior to initial glucose exposure
Procedure: The metabolic viability of cross-linked cells was assayed by monitoring the production and depletion of ATP over time. DTBP cells were cross-linked in 5 mM DTBP 150 mM glucose for 5 hours at 4° C. The cells were then washed 3 times and incubated in 150 mM glucose for an additional 19 hrs. After washing to remove the glucose the cells were incubated at 4° C. in PBS for 72 hrs before being returned to 150 mM glucose for the final 24 hr incubation. At each time point cells were removed, washed, and spectrophotometrically assayed for ATP as described in the text. The glucose controls were cells treated in the same manor but without crosslinking, and the control cells are cells without exposure to glucose.

Red cells = assay: Oxygen carrying ability (oxygen content by CO-oximeter); type: cell-based, human; settings: cells subjected to CO-treatment
Procedure: A semi-quantitative measure of oxygen carrying ability by DTBP cross-linked and reversed cells was performed. Red cells cross linked with 5 mM DTBP for different incubation times and cells reversed with DTT (see above) were processed through a membrane oxygenator to replace CO with oxygen. Oxygen saturation of the cells was measured using a CO-oximeter. After the oxygenation, cells were subjected to deoxygenation under a stream of nitrogen for 30 min. Percentage oxygen was measured again by the CO-oximeter. Oxygen binding and releasing properties for cross-linked, reversed and normal cells were compared.
We measured oxygen content (Vol%O2) of cells subjected to cross-linking and reversal with a CO-oximeter 282. […] CO-treated and cross-linked cells with 5 mM DTBP for 5 h, which underwent re-oxygenation in the membrane oxygenator had oxygen content of 7.3 Vol%O2.

erythrocytes [8] = assay: Methemoglobin formation during freeze-drying; type: cell-based; settings: CO-treated erythrocytes, FIG. 1
Description: Freeze-drying of hemoglobin leads to the formation of significant amount of methemoglobin. Circular dichroism studies for samples of hemoglobin freeze-dried with or without protectant have shown that the absence of a protector weakly influences the confirmation in the vicinity of the heme and increases the helicity of protein chains (Thirion C et al., 1983). Freeze-drying hemoglobin without denaturing and oxidizing it was made possible by the use of carbohydrates (Labrude PB et al., 1980). […] Since red cell membrane is non-permeable to disaccharides and only lowly permeable to monosaccharides, this limits the use of carbohydrates as protectants for intracellular hemoglobin. We explored CO-treatment as a means to prevent methemoglobin formation during freeze-drying. CO-treatment stabilizes hemoglobin in the CO-hemoglobin form by liganding CO. […] To reverse the CO-treatment, a hollow fiber oxygenator can be used.

Compound: CN(C)C(=O)/N=N/C(=O)N(C)C [diamide]
- Relative filtration index (Human erythrocytes [1]; Crosslinking with 5 mM diamide, 5 μm pore filter): 0.71 ± 0.03
- Percentage hemolysis (freeze-thaw damage) (Human erythrocytes [2]): cryoprotection of erythrocytes

Compound: lysolecithin [LPC]
- shape change of normal red blood cells (erythrocytes [3]; 10 μg/ml LPC, normal cells): shape change from discocytes to echinocytes

Compound: O[C@H](CS)[C@@H](O)CS [DTT, dithioerythritol]
- Relative filtration index (Human erythrocytes [1]; diamide-crosslinked cells, reversal of the cross-linking with 5 mM dithioerythritol): 0.83 ± 0.02
- Relative filtration index (Human erythrocytes [1]; diamide-crosslinked cells, reversal of the cross-linking with 10 mM dithioerythritol): 0.90 ± 0.01
- hemolysis at 10000 µM (Human erythrocytes [4]): 100%
- reversal of the effect of DTBP on osmotic fragility (Human erythrocytes [5]): complete reversal
- DImax and O′ after reversal (Red blood cells [6]): restored these indices towards normal values
- Omin (osmolality corresponding to the minimum DI) (Red blood cells [6]): 128 mOsmol/Kg
- reversal of shape stabilizing action of DTBP (erythrocytes [3]; 5 mM DTBP 1 h, 10 mM DTT 20 min, then 10 μg/ml LPC): completely reversible
- amount of ATP present after reversal (Red blood cells [7]): did not change the amount of ATP present

Compound: [C-]#[O+] [CO, carbon monoxide]
- oxygen content (Red cells): 0.7 Vol%O2
- methemoglobin formation during freeze-drying (erythrocytes [8]): prevents hemoglobin oxidation to methemoglobin
